From patent US7750048B2, “GPR40 agonists” (Janssen Pharmaceutica NV, priority 2006, dated 2010)
Where “and” joins values, the source holds several entries; their conditions need not be identical. Equal values may be shown once.

molecular target: T1, GPR40 receptor (Homo sapiens, UniProt O14842); assay: GPR40 in vitro assay: calcium mobilization in transfected HEK293/hGPR40-32 cells (FDSS6000); type: cell-based; conditions: several values in one cell are separate determinations, read-out: ED50 (the source's name)
T1 construct: expressed in transfected cells; host or cells: HEK293 (clone hGPR40-32)
T1 sequence (O14842 whole entry): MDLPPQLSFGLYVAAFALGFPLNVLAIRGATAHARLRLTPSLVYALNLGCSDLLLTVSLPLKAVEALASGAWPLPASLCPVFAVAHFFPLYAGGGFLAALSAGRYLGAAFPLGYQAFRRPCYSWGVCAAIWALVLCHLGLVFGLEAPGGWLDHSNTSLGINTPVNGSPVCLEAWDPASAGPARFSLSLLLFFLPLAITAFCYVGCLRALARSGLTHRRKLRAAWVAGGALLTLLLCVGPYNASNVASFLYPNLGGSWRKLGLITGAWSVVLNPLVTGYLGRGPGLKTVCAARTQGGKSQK
Protocol: To identify agonists of GPR40 receptor, the following assay was used to measure FFA-induced calcium mobilization in transfected cell lines HEK293/hGPR40-32: • Plate 20,000 cell/well in Corning 384 well plate (Cat# 3712); • Incubate over night (16 to 24 hours); • Remove medium; • Add 40 μl of 1×BD dye (1× signal enhancer, 1× calcium indicator dye, 1× probenecid, 0.01% BSA in DMEM/F12 media without Phenol Rad); • Incubate 30 minutes at 37° C. and 15 minutes at RT; • Read with the FDSS6000 System; • Add 20 μl of test compound (in 0.01% BSA in DMEM/F12 media without Phenol Rad); • Read for 5 minutes; • Add 20 μl of 40 μM linolenic acid or GPR40 agonist (in 0.01% BSA in DMEM/F12 media without Phenol Rad); • Read for 2 minutes.
Percentage Inhibition and/or ED50 were calculated following conventional methods.

**Q.** `CCCCCOc1ccc(C(CC(=O)O)c2ccccc2)cc1` (stereo not drawn) [Compound 3, 3-(4-Pentyloxy-phenyl)-3-phenyl-propionic acid] was tested. Which EC50 did it give?
**A.** The EC50 was 3300 nM and 4200 nM and 1400 nM.

**Q.** Which EC50 does the source give for `CC(C)(C)CCOc1ccc(C(CC(=O)O)c2ccccc2)cc1` (stereo not drawn) [Compound 28, 3-[4-(3,3-Dimethyl-butoxy)-phenyl]-3-phenyl-propionic acid] here?
**A.** Its EC50 is greater than 10000 nM.

**Q.** How did the EC50 turn out when `COCCOc1ccc(C(CC(=O)O)c2ccccc2)cc1` (stereo not drawn) [Compound 24, 3-[4-(2-Methoxy-ethoxy)-phenyl]-3-phenyl-propionic acid] was run?
**A.** Its EC50 is greater than 10000 nM.

**Q.** How did the EC50 turn out when `O=C(O)CC(c1ccccc1)c1ccc(OCCCC(F)(F)F)cc1` (stereo not drawn) [Compound 6, 3-Phenyl-3-[4-(4,4,4-trifluoro-butoxy)-phenyl]-propionic acid] was run?
**A.** Its EC50 is 3160 nM.

**Q.** `CCCOc1ccc(C(CC(=O)O)c2ccccc2)cc1` (stereo not drawn) [Compound 1, 3-Phenyl-3-(4-propoxy-phenyl)-propionic acid] was tested. Which EC50 did it give?
**A.** Its EC50 is 3700 nM.

**Q.** Which EC50 does the source give for `CCCCOc1ccc(C(CC(=O)O)c2cccs2)cc1` (stereo not drawn) [Compound 23, 3-(4-Butoxy-phenyl)-3-thiophen-2-yl-propionic acid] here?
**A.** Its EC50 is 960 nM and 1610 nM.

**Q.** How did the EC50 turn out when `CCCCOc1ccc(C(CC(=O)O)c2ccc(OC(F)(F)F)cc2)cc1` (stereo not drawn) [Compound 26, 3-(4-Butoxy-phenyl)-3-(4-trifluoromethoxy-phenyl)-propionic acid] was run?
**A.** The EC50 was greater than 10000 nM.

**Q.** Which EC50 does the source give for `CCC(CC)Oc1ccc(C(CC(=O)O)c2ccccc2)cc1` (stereo not drawn) [Compound 25, 3-[4-(1-Ethyl-propoxy)-phenyl]-3-phenyl-propionic acid] here?
**A.** Its EC50 is greater than 10000 nM.

**Q.** How did the EC50 turn out when `CC(C)CCOc1ccc(C(CC(=O)O)c2ccccc2)cc1` (stereo not drawn) [Compound 7, 3-[4-(3-Methyl-butoxy)-phenyl]-3-phenyl-propionic acid] was run?
**A.** The EC50 was 1810 nM and 2580 nM and 1180 nM.

**Q.** For `CC[C@H](C)COc1ccc(C(CC(=O)O)c2ccccc2)cc1` (single isomer, unassigned) [Compound 19, 3-[4-(2-Methyl-butoxy)-phenyl]-3-phenyl-propionic acid], which EC50 is on record?
**A.** Its EC50 is greater than 10000 nM.

**Q.** With `CCCCOc1ccc(C(CC(=O)O)c2ccccc2)cc1` (stereo not drawn) [Compound 2, 3-(4-Butoxy-phenyl)-3-phenyl-propionic acid] as the compound, how does the EC50 read?
**A.** Its EC50 is 1430 nM and 960 nM.

**Q.** Which EC50 does the source give for `CC[C@H](C)COc1ccc(C(CC(=O)O)c2ccccc2)cc1` (single isomer, unassigned) [Compound 17, 3-[4-(2-Methyl-butoxy)-phenyl]-3-phenyl-propionic acid] here?
**A.** Its EC50 is 560 nM.

**Q.** `CC[C@@H](C)COc1ccc(C(CC(=O)O)c2ccccc2)cc1` (single isomer, unassigned) [Compound 16, 3-[4-(2-Methyl-butoxy)-phenyl]-3-phenyl-propionic acid] was tested. Which EC50 did it give?
**A.** The EC50 was 710 nM.

**Q.** For `CCC(CC)COc1ccc(C(CC(=O)O)c2ccccc2)cc1` (single isomer, unassigned) [Compound 14, 3-[4-(2-Ethyl-butoxy)-phenyl]-3-phenyl-propionic acid], which EC50 is on record?
**A.** The EC50 was greater than 30000 nM.

**Q.** Which EC50 does the source give for `C=C(C)CCOc1ccc(C(CC(=O)O)c2ccccc2)cc1` (stereo not drawn) [Compound 8, 3-[4-(3-Methyl-but-3-enyloxy)-phenyl]-3-phenyl-propionic acid] here?
**A.** The EC50 was 2710 nM.

**Q.** For `CCCCOc1ccc(C(CC(=O)O)c2cccc(C(F)(F)F)c2)cc1` (stereo not drawn) [Compound 21, 3-(4-Butoxy-phenyl)-3-(3-trifluoromethyl-phenyl)-propionic acid], which EC50 is on record?
**A.** Its EC50 is 2840 nM.

**Q.** With `CCCCOc1ccc(C(CC(=O)O)c2cccc(F)c2)cc1` (stereo not drawn) [Compound 20, 3-(4-Butoxy-phenyl)-3-(3-fluoro-phenyl)-propionic acid] as the compound, how does the EC50 read?
**A.** Its EC50 is 1440 nM.

**Q.** With `CCCCCCOc1ccc(C(CC(=O)O)c2ccccc2)cc1` (stereo not drawn) [Compound 4, 3-(4-Hexyloxy-phenyl)-3-phenyl-propionic acid] as the compound, how does the EC50 read?
**A.** The EC50 was 2880 nM.

**Q.** Which EC50 does the source give for `CCC(CC)COc1ccc(C(CC(=O)O)c2ccccc2)cc1` (racemic) [Compound 11, 3-[4-(2-Ethyl-butoxy)-phenyl]-3-phenyl-propionic acid] here?
**A.** The EC50 was 640 nM.

**Q.** With `CC1CCC(Oc2ccc(C(CC(=O)O)c3ccccc3)cc2)CC1` (stereo not drawn) [Compound 13, 3-[4-(4-Methyl-cyclohexyloxy)-phenyl]-3-phenyl-propionic acid] as the compound, how does the EC50 read?
**A.** Its EC50 is 7320 nM.

**Q.** With `CCC(CC)COc1ccc(C(CC(=O)O)c2ccccc2)cc1` (single isomer, unassigned) [Compound 15, 3-[4-(2-Ethyl-butoxy)-phenyl]-3-phenyl-propionic acid] as the compound, how does the EC50 read?
**A.** Its EC50 is 850 nM.

**Q.** Which EC50 does the source give for `CCCCOc1ccc(C(CC(=O)O)c2ccccc2O)cc1` (stereo not drawn) [Compound 22, 3-(4-Butoxy-phenyl)-3-(2-hydroxy-phenyl)-propionic acid] here?
**A.** Its EC50 is 4800 nM.

**Q.** How did the EC50 turn out when `CCC(C)COc1ccc(C(CC(=O)O)c2ccccc2)cc1` (stereo not drawn) [Compound 12, 3-[4-(2-Methyl-butoxy)-phenyl]-3-phenyl-propionic acid] was run?
**A.** The EC50 was 330 nM and 260 nM.

**Q.** How did the EC50 turn out when `COCCCOc1ccc(C(CC(=O)O)c2ccccc2)cc1` (stereo not drawn) [Compound 10, 3-[4-(3-methoxy-propoxy)-phenyl]-3-phenyl-propionic acid] was run?
**A.** The EC50 was 7580 nM.

**Q.** Which EC50 does the source give for `CCCCCCCOc1ccc(C(CC(=O)O)c2ccccc2)cc1` (stereo not drawn) [Compound 5, 3-(4-Heptyloxy-phenyl)-3-phenyl-propionic acid] here?
**A.** Its EC50 is 4260 nM.

**Q.** Which EC50 does the source give for `CC=CCOc1ccc(C(CC(=O)O)c2ccccc2)cc1` (stereo not drawn) [Compound 9, 3-(4-But-2-enyloxy-phenyl)-3-phenyl-propionic acid] here?
**A.** The EC50 was 2710 nM.

**Q.** How did the EC50 turn out when `CC[C@@H](C)COc1ccc(C(CC(=O)O)c2ccccc2)cc1` (single isomer, unassigned) [Compound 18, 3-[4-(2-Methyl-butoxy)-phenyl]-3-phenyl-propionic acid] was run?
**A.** The EC50 was greater than 10000 nM.
